Reference: patent US20080318960A1, “PAR2-modulating compounds and their use” (priority 2005, published 2008)

Assays:
Type in all cases: cell-based
human PAR2 [1] = biological target: T1, human PAR2 (Homo sapiens, UniProt P55085); assay: Determination of changes in cytosolic calcium in transfected CHO-K1 cells; conditions: intracellular calcium mobilization; for EC50: CHO-K1 cells transfected with PAR2, Fura-2; for Emax: CHO-K1 cells transfected with PAR2, response compared to SLIGRL at 100 nM, read-out: % Efficacy
T1 sequence (P55085 26-397): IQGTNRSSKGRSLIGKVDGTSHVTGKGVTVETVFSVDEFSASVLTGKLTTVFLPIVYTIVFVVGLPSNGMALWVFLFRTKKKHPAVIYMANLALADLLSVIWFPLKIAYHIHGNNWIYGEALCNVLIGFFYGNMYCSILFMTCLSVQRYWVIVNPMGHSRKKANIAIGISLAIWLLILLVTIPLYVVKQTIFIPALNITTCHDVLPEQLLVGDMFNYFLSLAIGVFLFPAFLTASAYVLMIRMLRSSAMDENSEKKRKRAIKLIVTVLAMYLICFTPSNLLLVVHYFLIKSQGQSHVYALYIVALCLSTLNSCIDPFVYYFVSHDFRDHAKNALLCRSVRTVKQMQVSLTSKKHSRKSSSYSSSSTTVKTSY
Method: 1. CHO-K1 cells transfected with PAR2 or a control receptor at a density 1-3×10^6 cells/ml are washed with phosphate-buffered saline.
2. Cells are loaded with 2 μM Fura-2 and analyzed with respect to the rise in intracellular calcium in the presence or absence of varying concentration of compound.
3. The response is compared to that elicited by the application of the standard reference ligand SLIGRL when tested at 100 nM.
Intracellular free calcium concentrations are calculated using the formula:
where Kd for Fura-2 is 224 nM, Fmax is the fluorescence in the presence of 0.04% Triton-X100 and Fmin is the fluorescence obtained after the addition of 5 mM EGTA in 30 mM Tris-HCl, pH7.4.
As shown in Table 2 and FIG. 3, these experiments have shown these agents act at human PAR2 to stimulate intracellular calcium mobilization.

human PAR2 [2] = biological target: T1, human PAR2; assay: Determination of changes in inositol phosphates in transfected tsA cells; conditions: inositol phosphate hydrolysis, transfected tsA cells (transformed HEK293), 45 min with ligand; for Emax: TS/A, read-out: % Efficacy
Method: Seed tsA cells (a transformed HEK293 cell line) at 10,000 cells/0.1 ml per well of 96 well plates at 37 C in a humidified 5% CO2 incubator in DMEM supplemented with 10% fetal calf serum, penicillin (100 units/ml) and streptomycin ([…]) and grown overnight.
Transfect the cells with plasmid DNAs coding receptors or G-protein helpers when needed using PolyFect according to the RSAT protocol described previously. At 18-20 h post-transfection, the medium is removed and the cells are labeled overnight with 2 uCi/ml myo-[2-3H] inositol (0.1 ml/well) freshly made in the culture medium.
Remove the medium and wash cells with Hank's Balanced Salt Solutions (HBSS) containing 1 mM CaCl2, 1 mM MgCl2, 20 mM LiCl and 0.1% BSA. The cells are then incubated with ligands for 45 min at 37 C (0.1 ml/well) and the reaction is stopped by exchanging the buffer with 150 ul/well ice-cold 20 mM formic acid. Add 50 ul/well 0.2M ammonium and store plates at −80 C or process samples immediately.
To separate total [3H] inositol phosphates (IPs) ion-exchange chromatography columns are loaded with 200 ul of AG 1-X8 resin suspension (50% resin and 50% water) and the cell extracts were applied to the columns. Wash the columns with 1 ml 40 mM ammonium hydroxide (pH9) and elute [3H] IPs into the 2 ml deep-well blocks with 0.4 ml 2M ammonium format/0.1M formic acid. Wash the columns with 0.6 ml water. Transfer the eluates into 7 ml scintillation vials and add 5 ml liquid scintillation cocktail. Mix well, leave the vials in the dark for at least 4 h and count on LS 6500 Multi-purpose Scintillation Counter (3 min/vial). This procedure collects IP1, IP2 and IP3.
As shown in Table 3 and FIG. 4, these experiments have shown these agents act at human PAR2 to stimulate inositol phosphate hydrolysis.

human PAR2 [3] = biological target: T1, human PAR2; assay: Receptor Selection and Amplification Technology (R-SAT) functional receptor assay; set-up: expressed in transfected cells; host or cells: NIH3T3 cells, pSI-derived mammalian expression vector; conditions: for EC50: NIH3T3 cells transfected with PAR2, PAR2 activation, negative log of EC50 in Molar; for Emax: NIH3T3 cells transfected with PAR2, percent maximal activation relative to SLIGRL, read-out: % Efficacy
Method: The functional receptor assay, Receptor Selection and Amplification Technology (R-SAT), was used to investigate the pharmacological properties of known and novel PAR2 compounds. R-SAT is disclosed in U.S. Pat. Nos. 5,707,798, 5,912,132, and 5,955,281, all of which are hereby incorporated herein by reference in their entirety, including any drawings.
Briefly, NIH3T3 cells were grown in 96 well tissue culture plates to 70-80% confluence. Cells were transfected for 16-20 h with plasmid DNAs using Polyfect (Qiagen Inc.) as per manufacturer's protocols. R-SATs were generally performed with 4 ng/well of receptor and 20 ng/well of β-galactosidase plasmid DNA. All receptor constructs used were in the pSI-derived mammalian expression vector (Promega Inc) as described previously. The PAR2 gene was amplified by PCR from genomic DNA using oligodeoxynucleotide primers based on the published sequence (GenBank Accession # Z49993 and Z49994). For large-scale transfections, cells were transfected for 16-20 h, then trypsinized and frozen in DMSO. Frozen cells were later thawed, plated at ˜10,000 cells per well of a 96 half-area well plate that contained drug. With both methods, cells were then grown in a humidified atmosphere with 5% ambient CO2 for five days. Media was then removed from the plates and marker gene activity was measured by the addition of the β-galactosidase substrate o-nitrophenyl β-D-galactopyranoside (ONPG, in PBS with 0.5% NP-40). The resulting colorimetric reaction was measured in a spectrophotometric plate reader (Titertek Inc.) at 420 nm. All data were analyzed using the computer program XLFit (IDBSm). Efficacy is the percent maximal activation compared to activation by a control compound, the PAR2 activating hexapeptide SLIGRL (serine-leucine-isoleucine-glycine-arginine-leucine). pEC50 is the negative of the log (EC50), where EC50 is the calculated concentration in Molar that produces 50% maximal activation.
These experiments provide a molecular profile, or fingerprint, for each of these agents at human PAR2.
Efficacy is relative to that of SLIGRL.

Compound	EC50 (human PAR2 [1]) [nM]	Emax (human PAR2 [1]) [%]	Emax (human PAR2 [2]) [%]	EC50 (human PAR2 [2]) [nM]	EC50 (human PAR2 [3]) [nM]	Emax (human PAR2 [3]) [%]
C/C(=N\NC(=O)C(NC(=O)c1ccccc1)c1n[nH]c(=O)c2ccccc12)c1cccc(Br)c1 (stereo not drawn) [Compound 3, N-[2-{(2E)-2-[1-(3-bromophenyl)ethylidene]hydrazino}-2-oxo-1-(4-oxo-3,4-dihydro-1-phthalazinyl)ethyl]benzamide]	3980	72	120	2510	126	98
COc1cccc(/C(C)=N/NC(=O)C(NC(=O)c2ccccc2)c2n[nH]c(=O)c3ccccc23)c1 (stereo not drawn) [Compound 6, N-[2-{(2E)-2-[1-(3-methoxyphenyl)ethylidene]hydrazino}-2-oxo-1-(4-oxo-3,4-dihydro-1-phthalazinyl)ethyl]benzamide]	–	–	–	–	794	79
CC/C(=N\NC(=O)C(NC(=O)c1ccccc1)c1n[nH]c(=O)c2ccccc12)c1cccc(Br)c1 (stereo not drawn) [Compound 25, N-[2-{(2E)-2-[1-(3-bromophenyl)propylidene]hydrazino}-2-oxo-1-(4-oxo-3,4-dihydro-1-phthalazinyl)ethyl]benzamide]	–	–	–	–	501	111
C/C(=N\NC(=O)C(NC(=O)c1ccccc1)c1n[nH]c(=O)c2ccccc12)c1cccc(C(F)(F)F)c1 (stereo not drawn) [Compound 27, N-[2-oxo-1-(4-oxo-3,4-dihydro-1-phthalazinyl)-2-((2E)-2-{1-[3-(trifluoromethyl)phenyl]ethylidene}hydrazino)ethyl]benzamide]	–	–	–	–	251	77
C/C(=N\NC(=O)C(NC(=O)c1ccccc1)c1n[nH]c(=O)c2ccccc12)c1cccc(Cl)c1 (stereo not drawn) [Compound 28, N-[2-{(2E)-2-[1-(3-chlorophenyl)ethylidene]hydrazino}-2-oxo-1-(4-oxo-3,4-dihydro-1-phthalazinyl)ethyl]benzamide]	–	–	–	–	158	112
C/C(=N\NC(=O)C(NC(=O)c1ccccc1)c1n[nH]c(=O)c2ccccc12)c1cccc(C#N)c1 (stereo not drawn) [Compound 29, N-[2-{(2E)-2-[1-(3-cyanophenyl)ethylidene]hydrazino}-2-oxo-1-(4-oxo-3,4-dihydro-1-phthalazinyl)ethyl]benzamide]	–	–	–	–	316	132
C/C(=N\NC(=O)C(NC(=O)c1ccccc1)c1n[nH]c(=O)c2ccccc12)c1cccc(C)c1 (stereo not drawn) [Compound 31, N-[2-{(2E)-2-[1-(3-methylphenyl)ethylidene]hydrazino}-2-oxo-1-(4-oxo-3,4-dihydro-1-phthalazinyl)ethyl]benzamide]	–	–	–	–	316	118
C/C(=N\NC(=O)C(NC(=O)c1ccccc1)c1n[nH]c(=O)c2ccccc12)c1cc(C)cc(C)c1 (stereo not drawn) [Compound 43, N-[2-{(2E)-2-[1-(3,5-dimethylphenyl)ethylidene]hydrazino}-2-oxo-1-(4-oxo-3,4-dihydro-1-phthalazinyl)ethyl]benzamide]	7940	85	130	10000	79.4	122
